Measurements: ChEMBL document CHEMBL1156024, “The first Hes1 dimer inhibitors from natural products” (Bioorg Med Chem Lett, 2009)
Active and inactive are the calls of the source. The rule behind the calls is not given here.

Experiments:
[1] = target: T1, Transcription factor HES-1 (Mus musculus, UniProt P35428); test: Inhibition of Cy3-labeled mouse recombinant Hes1 (3-281) dimer formation expressed in Escherichia coli by microplate-based assay
T1 sequence (P35428 whole entry): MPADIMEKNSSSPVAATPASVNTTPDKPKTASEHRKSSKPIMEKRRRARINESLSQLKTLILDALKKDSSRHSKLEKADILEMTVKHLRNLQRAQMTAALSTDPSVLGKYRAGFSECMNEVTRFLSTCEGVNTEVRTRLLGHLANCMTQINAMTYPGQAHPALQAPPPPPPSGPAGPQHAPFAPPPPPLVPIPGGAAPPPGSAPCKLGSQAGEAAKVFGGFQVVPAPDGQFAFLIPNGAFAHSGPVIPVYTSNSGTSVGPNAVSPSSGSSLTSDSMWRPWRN

[2] = target: T2, Transcription factor HES-1 (Mus musculus) (UniProt P35428); conditions: C3H 10T1/2, 50 uM
T2 sequence (whole entry): T1 sequence (P35428 whole entry)
Description: Inhibition of mouse Hes1-mediated suppression of basic helix-loop-helix activator genes in C3H10T1/2 cells at 50 uM by luciferase transactivation assay

[3] = target: T2, Transcription factor HES-1 (Mus musculus); test: Inhibition of Cy3-labeled mouse recombinant Hes1 (3-281) dimer formation expressed in Escherichia coli at 100 uM by microplate-based assay

Structure (SMILES)	IC50 [1] [µM]	inhibition [2] [%]	inhibition [3]
C/C=C1/[C@H]2OC=C(C(=O)O)[C@H]1CC(=O)OC[C@H](c1ccc(O)c(O)c1)OC[C@H]1O[C@@H](O2)[C@H](O)[C@@H](O)[C@@H]1O	7.8		
CCCC(=O)/C=C/C1=C(O)C(=O)c2cc(O)c(O)cc2C1=O [LINDBLADIONE]	4.1	60	
O=C1NCc2c1c1c3ccccc3[nH]c1c1[nH]c3ccccc3c21			inactive
O=C(O)c1[nH]c(C(=O)O)c(-c2c[nH]c3ccccc23)c1-c1c[nH]c2ccccc12 [LYCOGALIC ACID A]	6	60	
COC(=O)c1[nH]c(C(=O)O)c(-c2c[nH]c3ccccc23)c1-c1c[nH]c2ccccc12			inactive
COC(=O)c1[nH]c(C(=O)OC)c(-c2c[nH]c3ccccc23)c1-c1c[nH]c2ccccc12			inactive

Other lines, results leading:

IC50 [1] [µM]	inhibition [2] [%]	inhibition [3]	Structure (SMILES)
9.6			COc1cc([C@@H]2c3c(cc(OC)c(O)c3OC)C[C@H](CO)[C@H]2CO[C@@H]2OC[C@@H](O)[C@H](O)[C@H]2O)cc(OC)c1O [NUDIPOSIDE]
48.1			COc1cc([C@H]2c3c(cc(OC)c(O)c3OC)C[C@@H](CO)[C@@H]2CO[C@@H]2OC[C@@H](O)[C@H](O)[C@H]2O)cc(OC)c1O [LYONISIDE]
16.5			COC(=O)c1[nH]c(C(=O)OC)c(-c2c[nH]c3ccc(O)cc23)c1-c1c[nH]c2ccccc12 [LYCOGARUBIN B]
